Ends that are not written are not given here.
What was measured:
Experiment in all cases: biochemical
Format in all cases: binding
Conditions in all cases: for inhibition at 250 µM: 24 h, read-out: Binding percentage
HLA-DRB1*0401 = molecular target: T1, HLA-DRB1*0401 (Homo sapiens, UniProt P01903+P01911, A100K/A169T/F76Y/I96L/K127E/L162R/M171V/N62H/P40V/Q125Y/R42H/S133A/S149N/S66Y/V115G/V209L/W38E)
T1 construct: homozygous lymphoblastoid B-cell lines (International Histocompatibility Working Group); host or cells: human HLA-DRB1*0401 homozygous lymphoblastoid B-cell line

HLA-DRB1*1302 = HLA-DRB1*1302 (Homo sapiens, UniProt P01903+P01911, A100E/A169T/K41T/L162R/M171V/P40S/Q125H/Q178H/Q39Y/Q99D/R42S/S66N/T262R/V115G/W38E/Y61H)
HLA-DRB1*1302, sequence (P01903 26-254 limits assumed, other chains not shown): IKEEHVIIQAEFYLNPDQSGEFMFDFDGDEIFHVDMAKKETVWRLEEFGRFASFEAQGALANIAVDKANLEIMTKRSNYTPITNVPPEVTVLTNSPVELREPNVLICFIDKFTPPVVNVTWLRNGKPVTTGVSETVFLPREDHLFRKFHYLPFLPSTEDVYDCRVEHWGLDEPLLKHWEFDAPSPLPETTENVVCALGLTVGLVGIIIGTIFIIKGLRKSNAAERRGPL

HLA-DRB1*0701 = HLA-DRB1*0701 (Homo sapiens, UniProt P01903+P01911, A100R/A102G/A103Q/D57E/D86V/E43K/F76Y/K127E/L162R/M171V/P40G/Q125H/Q99D/R33Q/R42Y/R54Q/S133A/S66F/T210M/V115G/Y107V/Y59L/Y89S)
HLA-DRB1*1101 = HLA-DRB1*1101 (Homo sapiens, UniProt P01903+P01911, A100R/A169T/A87E/I96F/K41T/L162R/M171V/P40S/Q125H/Q178H/Q39Y/Q99D/R42S/S66Y/T262R/V115G/W38E)
HLA-DRB1*1101, sequence (P01903 26-254 limits assumed, other chains not shown): as above

| Sequence | IC50 (HLA-DRB1*0401) [µM] | inhibition at 250 µM (HLA-DRB1*0401) [%] | inhibition at 250 µM (HLA-DRB1*1302) [%] | inhibition at 250 µM (HLA-DRB1*0701) [%] | inhibition at 250 µM (HLA-DRB1*1101) [%] | IC50 (HLA-DRB1*1101) [µM] | IC50 (HLA-DRB1*1302) [µM] | IC50 (HLA-DRB1*0701) [µM] |
| --- | --- | --- | --- | --- | --- | --- | --- | --- |
| DKSFISEANSFRNEE [compound 39149] | 26.3 | 85.8 | 33.5 | 42.8 | 36.5 | – | – | – |
| KLKYIFKRRKTMKKK [compound 39151] | 40 | 65.3 | 13.1 | 36 | 78.5 | 51.1 | – | – |
| LKPFYSLETMLMANS [compound 39147] | 4.6 | 92.6 | 63 | 83.2 | 79.3 | 23 | 79 | 26 |
| NVRKFFLNDVSSIRH [compound 39148] | 11.9 | 83 | 94.2 | 79.9 | 73.8 | 83.4 | 7.4 | 39.7 |
| NYEIYIASSSNIYLM [compound 39046] | 28.4 | 91.8 | 92.8 | 91.5 | 82.9 | 120 | 29.6 | 23.3 |
| QTAFRKFFKKIISLG [compound 39150] | 33.7 | 83.6 | 7.7 | 67.2 | 87.6 | 83.4 | – | 51.8 |
| TPIIVKYDNTHAKNR [compound 39048] | 11.9 | 90.7 | 3.3 | 10.5 | 16.8 | – | – | – |
